≈ marks a conversion by molar mass, not a printed value. Like-named read-outs stand apart in the source and are kept apart here.
Experiment: Solubility of the drugs in aqueous media
Assay type: physicochemical

## CCc1cc(Oc2cccc(N(Cc3cccc(OC(F)(F)C(F)F)c3)C[C@@H](O)C(F)(F)F)c2)ccc1Cl [Drug 1, (2R)-3-[[3-(4-chloro-3-ethylphenoxy)phenyl][[3-(1,1,2,2-tetrafluoroethoxy)phenyl]methyl]amino]-1,1,1-trifluoro-2-propanol]
Phosphate buffered saline, aqueous buffer, PBS, pH 6.5, read-out: solubility in phosphate buffered saline at pH 6.5 (PBS)
  solubility: < 0.1 µg/mL

## CC[C@@H]1C[C@H](N(Cc2cc(C(F)(F)F)cc(C(F)(F)F)c2)C(C)=O)c2cc(C(F)(F)F)ccc2N1C(=O)OC(C)C [Drug 2, [2R,4S]4-[acetyl-(3,5-bis-trifluoromethyl-benzyl)-amino]-2-ethyl-6-trifluoromethyl-3,4-dihydro-2H-quinoline-1-carboxylic acid isopropyl ester]
Model fasted duodenal (MFD) solution, fassgf or other biorelevant, MFD solution, read-out: solubility in model fasted duodenal (MFD) solution
  solubility: ~11 µg/mL (≈ 18.4 µM)

## CCOC(=O)N1c2ccc(C(F)(F)F)cc2[C@@H](N(Cc2cc(C(F)(F)F)cc(C(F)(F)F)c2)C(=O)OC)C[C@H]1CC [Drug 3, [2R,4S]4-[(3,5-bis-trifluoromethyl-benzyl)-methoxycarbonyl-amino]-2-ethyl-6-trifluoromethyl-3,4-dihydro-2H-quinoline-1-carboxylic acid ethyl ester, reference compound]
water, read-out: solubility in water
  solubility: < 0.1 µg/mL
